Structures can show the parent of a compound that is named as a salt.
Assays:
Type in all cases: cell-based, human
MCF-7/Vin cells = experiment: Microviscosity of plasma membranes, DPHT fluorescence polarization; settings: OEP inhibitor 8.7, 87, 870 μg/ml, doxorubicin 1 μM, cholesterol 100 μg/ml, Triton X-100 0.05%, 1 hour
From the text: (§1) A key physico-chemical characteristic of cell membranes that affects their physiological activity is microviscosity, a measure of lipid mobility in the bilayer, which plays an important role in membrane permeability and the functioning of membrane proteins. To assess the plasmalemma microviscosity, a fluorescent method is used, based on the use of a lipophilic indicator of diphenylhexatriene (DPHT), whose fluorescence depends on the cell membrane fluidity.
(§2) Cell suspension with a density of 2×10^6 cells/ml was incubated with DPHT at a final concentration of 1 μM for 30 minutes. Next, aliquots (10 μl) of OEP inhibitor solutions were added to the cell suspension using a multichannel dispenser to a final concentration of 8.7; 87 and 870 μg/ml, as well as doxorubicin at a concentration of 1 μM and its composition with an OEP inhibitor (DOX 1 μM+OEP inhibitor 8.7 μg/ml; DOX 1 μM+OEP inhibitor 87 μg/ml). […] Immediately after introducing aliquots of samples, the fluorescence polarization of DPHT was detected for 1 hour with an interval of 10 minutes.

MCF-7 cells = experiment: as above; settings: OEP inhibitor 8.7, 87, 870 μg/ml, doxorubicin 1 μM, cholesterol 100 μg/ml, Triton X-100 0.05%, 1 hour
From the text: as §1, §2

P-gp (ABCB1) = experiment: Immunoblotting of P-gp (ABCB1) expression in MCF-7 cells; settings: 48 hours, doxorubicin 3 μM, OEP inhibitor 261 μg/ml, composition 3 μM: 261 μg/ml
Method: MCF-7, MCF-7-ABCC1-DsRed (with over-expression of MRP-1), MCF-7-ABCC2-BFP (with over-expression of MRP-2), MCF-7-ABCB1-GFP (with P-gp over-expression) cells in concentrations of 3×10^4 cells/cm^2 were cultured in complete DMEM nutrient medium with either doxorubicin added to a final concentration of 3 μM; or an OEP inhibitor to a final concentration of 261 μg/ml; or doxorubicin-OEP inhibitor compositions to a final concentration of 3 μM: 261 μg/ml for 48 hours at 37° C. in the atmosphere of 5% CO2. An adapted and modified ABCAM protocol (http://www.abcam.com/ps/pdf/protocols/wb-beginner.pdf) was used to study proteins by immunoblotting (Western Blot). Monoclonal antibodies to ABCB1 (Cat. No. sc-13131, Santa Cruz) were used at a dilution of 1:200. Anti-mouse antibodies conjugated with HRP—(Cat. No ab6728, Abcam) at a dilution of 1:10,000 were used as secondary. Monoclonal antibodies to β-actin (Cat. No. mAbcam 8226, Abcam) were used at a dilution of 1:2000. The results of the analysis were visualized on ChemiDoc XRS+system (Bio-Rad).

Molecule	polarization of the fluorescence of DPHT (membrane microviscosity) (MCF-7/Vin cells)	polarization of the fluorescence of DPHT (membrane microviscosity) (MCF-7 cells)	active glycosylated 190 kDa form of ABCB1, immunoblotting (P-gp (ABCB1))
CC(C)CCC[C@@H](C)[C@H]1CC[C@H]2[C@@H]3CC=C4C[C@@H](O)CC[C@]4(C)[C@H]3CC[C@]12C [Cholesterol, cholesterol]	significantly increased	significantly increased	–
COc1cccc2c1C(=O)c1c(O)c3c(c(O)c1C2=O)C[C@@](O)(C(=O)CO)C[C@@H]3O[C@H]1C[C@H](N)[C@H](O)[C@H](C)O1 [doxorubicin, Doxorubicin (DOX) hydrochloride]	did not significantly change	did not significantly change	increases the amount of the active form
Triton X-100	significant decrease	significant decrease	–

From patent US10987429B2, “Inhibitor of ATP-dependent cellular reverse transporters and method for producing same” (AO “TATKHIMFARMPREPARATY”, priority 2016, dated 2021)
